Test results taken from patent publication US11135228B2, “Cysteinyl-proresolving mediators that promote resolution of infection and organ protection” (THE BRIGHAM AND WOMEN'S HOSPITAL, priority 2014, dated 2021).
“Also recorded” adds a separate entry of the source.

Columns and labels:
Djndk, Djmpka, DjAdb-Ba = experiment: Gene expression in regenerating planaria blastemas (real-time PCR); type: in vivo, Dugesia japonica; conditions: 100 nM, 2 days post injury
Experimental: Whole mount in situ hybridization, real-time PCR and dsRNA synthesis: Regenerating blastemas were obtained from planaria after surgical injury and placed in Trizol (Ambion). RNA was isolated following manufacturer's instructions and cDNA was synthesized essentially as in (16) using random hexamers, Oligo(dt)20 and Superscript III (Invitrogen), Relative quantitative analysis for each gene product was carried out using an ABI 7900ht fast real-time PCR machine (Applied Biosystems). DjGapdh—Forward: […] (SEQ ID NO. 1); Reverse: […] (SEQ ID NO. 2). Djsfpr-A—Forward: […] (SEQ ID NO. 3); Reverse: […] (SEQ ID NO. 4). Djndk—Forward: […] (SEQ ID NO. 5); Reverse: […] (SEQ ID NO. 6). DjmpkA—Forward: […] (SEQ ID NO. 7); Reverse: […] (SEQ ID NO. 8). DfAdb-Ba—Forward: […] (SEQ ID NO. 9); Reverse: […] (SEQ ID NO. 10). DjGst—Forward: […] (SEQ ID NO. 11); Reverse: […] (SEQ ID NO. 12). The constitutively transcribed housekeeping gene, GAPDH, was employed to normalized target gene expression levels as in (16).
Planaria regeneration: Planaria (Dugesia japonica; Dj) were kept in water (Poland Spring) at 18° C. […] Tissue regeneration was assessed as in (12). […] The extent of tissue regeneration during a 6-day period for D. japonica was determined using captured images of the regenerating blastemas at regular intervals (24 h). These images were analyzed using ImageJ software. […]

E. coli = experiment: Murine E. coli peritonitis: leukocyte counts, resolution indices, in vivo phagocytosis; design: species or system mouse; conditions: for leukocyte phagocytosis of E. coli in vivo: co-administration of SCI and SCII 50 ng each, i.p.; for resolution of infections in mice: co-administration of equal amounts of SCI and SCII
Experimental: Murine Peritonitis: Mouse experiments were conducted in accordance with guidelines from Harvard Medical Area Standing Committee on Animals (protocol no. 02570). Mice were inoculated with E. coli (serotype 06:K2:H1) as in (11) and peritoneal exudates were collected by lavaging the peritoneal cavity with 4 ml of PBS (without calcium and magnesium) at the indicated intervals. Leukocytes were enumerated by light microscopy using nuclear morphology staining with Turks solution and flow cytometry probing for CD11b-PerCP/Cy5.5 (eBioscience, clone: M1/70), F4/80-PE (eBioscience, BM8) and Ly6G-FITC (eBioscience, clone: 1A8) as in (11). For product isolation, 24 h peritoneal exudates were collected and 2 volumes of ice-cold methanol were added. Isolates were obtained as detailed in the lipid mediator metabotolipidomics section.
In select experiments 12 h after E. coli inoculation, mice were administered either 100 ng of SCI and SCII (50 ng/each per mouse) or vehicle (saline containing 0.1% ethanol (EtOH)) via i.p. injection. Peritoneal exudates were then collected and leukocyte counts determined as above. Assessment of leukocyte phagocytosis of E. coli in inflammatory exudates was conducted as in (11). Briefly cells were incubated with anti-CD11b-Per(T/Cy5.5 conjugated antibody; subsequently the cells were permeabilized using BD Cytofix/Cytoperm™ Fixation/Permeabilization Kit following manufacturer's instructions; cells were then incubated with a FITC conjugated anti-E. coli antibody (GTX40856; GeneTex) and phagocytosis assessed as mean fluorescence in the CD11b- positive cell population.
Resolution indices were calculated as in (11) where Ψmax=the maximal PMN numbers in the exudates; Tmax=the time point when PMN numbers reach maximum; R50=50% of maximal PMN numbers; T50=the time point when PMN numbers reduce to 50% of maximum; Ri (resolution interval)=T50−Tmax, the time period when 50% PMN are lost from the exudates.

[1] = system: Planaria (Dugesia japonica); experiment: Planaria tissue regeneration after surgical injury (head resection), tissue regeneration index; type: in vivo; conditions: for T50: either SCI or SCII alone, concentration dependent, vehicle ~5 days; for tissue regeneration / head regrowth (in words): surgically injured planaria vs vehicle
Experimental: Planaria regeneration: Planaria (Dugesia japonica; Dj) were kept in water (Poland Spring) at 18° C. All animals were starved for at least 7 days prior to experiments. Tissue regeneration was assessed as in (12). Briefly, planaria were subject to head resection post-occularly (surgical Injury). The posterior portions of the planaria were then placed in spring water containing 0.01% EtOH, SPE-C isolate fraction 2 from resolving exudates or milk at the indicated dilutions, U0126 (Extracellular signal-regulated kinases (ERK) inhibitor; Cell Signaling Technology; 25 μM (16)), U0126 plus resolving exudates SPE-C isolates fraction 2, SCI (100 nM), SCII (100 nM), lipoxygenase inhibitor (baicalein, 10 μM) or lipoxygenase inhibitor plus SCI and SCII (100 nM). The extent of tissue regeneration during a 6-day period for D. japonica was determined using captured images of the regenerating blastemas at regular intervals (24 h). These images were analyzed using ImageJ software. A tissue regeneration index (TRI) was employed that took into consideration the size of the regenerated tissue total area (A) and the post-ocular width W of the animal, where TRI=A/W. In determined experiments, planaria were injured and incubated in water, containing 10^8CFU E. coli (serotype O6:K2:H1) or with E. coli plus SCI and SCII (100 nM), and tissue regeneration indices assessed as described above.
Planaria regeneration: Planaria (Dugesia japonica) were kept in water (Poland. Spring; Nestlé Waters North America, Stamford, Conn., USA) at 18° C. All animals were starved for at least 7 d before the experiments. Tissue regeneration was assessed as described previously (10). In brief, planaria were subjected to head resection postoccularly (surgical injury). The posterior portions of the planaria were then placed in spring water containing 0.01% EtOH, 16-glutathionyl, 17-hydroxyl-4Z,7Z,10,12,14,19Z-docosahexaenoic acid plus 16-cysteinylglycinyl, 7-hydroxyl-4Z,7Z,10,12,14,19Z-docosahexaenoic acid (50 nM; each) or 8-gutathionyl, 7,17-dihydroxyl-4Z9,11,13Z,15E,19Z-docosahexaenoic acid plus 8-cysteinylglycinyl, 7,17-dihydroxyl-4Z,9,11,13Z,15E,19Z-docosahexaenoic acid (50 nM, each). The extent of tissue regeneration during a 6-d period was determined using captured images of the regenerating blastemas at regular intervals (24 h). These images were analyzed using ImageJ software (NIH, Bethesda, Md., USA). A tissue regeneration index (TRI) was used that took into consideration the size of the regenerated tissue total area (A) and the postocular width (W), where TRI=A/W (10).

| Compound | genes involved in head regeneration (Djndk, Djmpka, DjAdb-Ba) | leukocyte phagocytosis of E. coli in vivo (E. coli) | resolution of infections in mice (E. coli) | T50 [1] [days] | tissue regeneration / head regrowth (in words) [1] |
| --- | --- | --- | --- | --- | --- |
| 13-glutathionyl, 14-hydroxy-docosahexaenoic acid [SCI] | upregulated | Stimulates mouse | Promotes resolution of | ~3.5 | accelerated head regrowth; also recorded: Promotes tissue |
| CCC=CCC=CCC(O)C(C=CC=CC=CCC=CCCC(=O)O)SCC(N)C(=O)NCC(=O)O (stereo not shown) [SCII, 13-cysteinylglycinyl, 14-hydroxy-docosahexaenoic acid] | upregulated | Stimulates mouse | Promotes resolution of | ~3.5 | accelerated head regrowth; also recorded: Promotes tissue |
